Test results from article PMC3665795, “Crystal Structure of a Novel N-Substituted L-Amino Acid Dioxygenase from Burkholderia ambifaria AMMD” (PLoS ONE, 2013).

Experiments:
SadA = target: T1, SadA (Burkholderia ambifaria, UniProt Q0B2N4); experiment: X-ray crystal structure, […] Å; format: binding; settings: Zn(II) in place of Fe(II); cocrystallized with 10 mM α-KG; 0.1 M CHES pH 9.5, 30% PEG 3,000, 293 K; active site, chain A, bidentate to the metal
T1 construct: gene Bamb_6045; dimer
T1 sequence (Q0B2N4 1-273): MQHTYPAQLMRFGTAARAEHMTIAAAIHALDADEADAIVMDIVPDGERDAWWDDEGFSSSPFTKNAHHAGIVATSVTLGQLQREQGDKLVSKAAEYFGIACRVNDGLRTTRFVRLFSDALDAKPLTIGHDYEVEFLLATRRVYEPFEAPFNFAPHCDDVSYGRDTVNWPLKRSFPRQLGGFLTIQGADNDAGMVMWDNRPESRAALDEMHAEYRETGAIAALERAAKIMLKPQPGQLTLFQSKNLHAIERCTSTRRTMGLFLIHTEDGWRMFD

[1] = target: SadA, N-substituted L-amino acid dioxygenase from Burkholderia ambifaria AMMD (Burkholderia ambifaria AMMD); experiment: SEC; Superdex 200 size-exclusion chromatography; calibrated with ovalbumin (43 kDa) and conalbumin (75 kDa)

Row | stoichiometry N [1] | Compound | X-ray crystal structure, 1.98 Å (SadA)
1 |  | O=C(O)CCC(=O)C(=O)O [α-KG] | only one α-KG molecule is clearly observed in chain A of the SadA.Zn(II).α-KG structure
2 | 2 | SadA, N-substituted L-amino acid dioxygenase from Burkholderia ambifaria AMMD (enzyme) | 
